From patent US20110105436A1, “HETEROARYL COMPOUNDS, COMPOSITIONS, AND METHODS OF USE IN CANCER TREATMENT” (AUCKLAND UNISERVICES LIMITED, priority 2008, published 2011)

Columns and labels:
[1] = test system: RCC4, RCC4/VHL, SN12C and SN12C-VHL shRNA cells; assay: Acidic vesicle organelles with acridine orange (FACS); assay type: cell-based; conditions: 1.25 μM, VHL-deficient versus wild-type VHL cells
Method: Quantification of Acidic Vesicle Organelles with Acridine Orange. In acridine orange-stained cells, the cytoplasm and nucleus are bright green and dim red, whereas acidic compartments are bright red. The intensity of the red fluorescence is proportional to the degree of acidity. Following 20 hours of treatment with STF-62247 or analogs, cells were stained with 1 μg/ml of acridine orange for 15 min. Cells were trypsinized and then analyzed by flow cytometry using FACScan cytometer and CellQuest software.
A. VHL-deficient RCC4 and wild-type VHL were incubated in presence of 10 μM LY294002, or 1 μg/mlBrefeldin A with 1.25 μM of STF-62247 for 20 hrs and the presence of vacuoles was examined under light microscopy. B,C. LC3 processing was evaluated by Western blot after the treatment with Brefeldin A or LY294002 in presence or absence of STF-62247 as described above. Tubulin was used as loading control. D. Cells were treated with 1.25 μM of STF-62247 with or without 2 mM of 3-MA, 1 μg/ml of Brefeldin A for 20 hrs. For the last 15 min, acidic components were stained with 1 μg/ml of acridine orange and visualized under fluorescence microscope. […] F. Quantification of the FACS analysis. The data are calculated as the average of three different experiments as relative units of treated over untreated cells. The error bars are represented as the standard error of the mean (SEM).
A. RCC4 and RCC4/VHL were treated with 1.25 μM of each 19 analogs for 20 hours and the presence of vacuoles was examined under light microscopy. B. Western blot for LC3 after treatment with each compound. Tubulin was used as loading control. Ratio is the relative from the IC50 in RCC4/VHL cells/IC50 in RCC4 cells. C. Acidic vesicle organelles (AVO) measured by FACS analysis in cells treated with 1.25 μM of STF-62247 or with compounds 21, 15, 25, 47, and 53 and stained with acridine orange.

[2] = test system: RCC4/VHL cells; assay: XTT assay, RCC4/VHL versus RCC4 cells (selectivity ratio); assay type: cell-based
Outline: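 RCC4 cells with or without VHL (5000/well) exposed to serially diluted compounds for four days. Viability read as XTT metabolism (0.3 mg/ml XTT plus PMS, 1-2 h, 37 °C) at 450 nm. Ratio is IC50 in RCC4/VHL over IC50 in RCC4.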

[3] = test system: SN12C and SN12C+shVHL tumor samples; assay: Ki67 immunostaining of tumor samples; assay type: in vivo, mice; conditions: RCC deficient in VHL or with wild-type VHL, FIG. 7H
Method: (§1) B. XTT assay in RCC4 and RCC4/VHL in presence of STF-62247 (0-40 μM). Each point of the cell survival is calculated by the average of three different experiments in duplicate as the percent of treated on untreated plate. The error bars are represented as the standard error of the mean (SEM) C. qRT-PCR for Glutl, VEGF, PDF and PGK in RCC4 cells with or without HIF-1a, HIF-2a shRNA and in RCC4/VHL. D. Hoescht staining in RCC4 and RCC4/VHL cells with 1.25 μM of STF-62247 for 2 days. Camptothecin was used as positive control E. FACS analysis for apoptosis after an annexin V-FITC staining in presence or absence of propidium iodine (PI) in cells after a treatment in same conditions than in C. F. Immunoblot for active caspase-3 in RCC4 and RCC4/VHL following treatment with 1.25 μM of STF-62247 for 24 hours. Staurosporine was used as positive control (0.2 μM for 24 hours). G,H. Immunostaining of caspase-3 and Ki67 respectively in SN12C and SN12C+shVHL tumor samples untreated or treated with 30 μM of STF-62247.1. Immunoblot for p53 and SerlS phospho-p53 in RCC4 and RCC4/VHL cells after a treatment with 1.25 μM of STF-62247 or doxorubicin for 24 hours.

[4] = test system: RCC4 and RCC4/VHL cells; assay: Apoptosis by Hoechst, Annexin V staining and caspase-3; assay type: cell-based; conditions: in vitro, VHL-deficient cells, 1.25 μM; confirmed by caspase-3 in tumor sections
Method: as §1

[5] = test system: SN12C-VHL shRNA tumors; assay: Tumor growth of SN12C-VHL shRNA cells in scid mice; assay type: in vivo; conditions: VHL-deficient tumors, daily intraperitoneal treatment, FIG. 1E
Method: In vivo studies. 2−3×10^6 SN12C and SN12C-VHL shRNA cells were injected in male scid mice 4-6 weeks old. When tumor volume reached 150 mm^3, mice were randomized into vehicle control group or STF-62247 treatment group. Mice were treated every day with […] of STF-62247 intraperitoneally. Tumor growth was measured every 2-3 days after the drug treatment was started.
A. RCC4 and RCC4/VHL cells were labeled with EYFP and the effect of STF-62247 was monitored by fluorescence in each cell type separately. Cells are pseudocolored. B. Clonogenic assay in RCC4, RCC4/VHL, SN12C, SN12C-VHL shRNA cells in the presence of STF-62247 (0-30 μM). Each point of the cell survival is calculated by the average of three different experiments in triplicate as the percent of treated on untreated plate. The error bars represented the standard error of the mean (SEM). C. Upper Panel, clonogenic assay in RCC4 infected with HIF-1α or HIF-2α shRNA by retroviral infection in presence of drug in same conditions described above. Bottom panel, HIF-1α or HIF-2α protein expression evaluated by western blot in RCC4 cells with HIF-1α or HIF-2α shRNA. Tubulin is used as loading control. […] Tumor volume was measured every 2-3 days and data are represented in fold. Five tumors in each condition were analyzed where * p<0.05, **p<0.01 and ***p<0.005.

Q: How did the “acridine orange staining / amount of AVOs” value [1] turn out when Cc1cccc(Nc2nc(-c3ccncc3)cs2)c1 [Compound 5, N-(3-Methylphenyl)-4-(4-pyridinyl)-1,3-thiazol-2-amine] was run?
A: significantly increased in VHL-deficient RCC4 cells compared to their wild-type VHL counterparts

Q: And the Ratio ([2]; Table 1, selectivity ratio, IC50 in RCC4/VHL cells/IC50 in RCC4 cells)?
A: 19

Q: And the “IC50 ratio (wild-type VHL/VHL-deficient cells)” value ([2]; structure-activity text on Tables 1 and 2)?
A: high IC50 ratio

Q: What about the “proliferation by Ki67 staining” value [3] of the same molecule?
A: no difference in proliferation

Q: And the induction of apoptosis [4]?
A: did not induce apoptosis

Q: What about the tumor growth [5] of the same molecule?
A: significantly reduced tumor growth in VHL-deficient cells
